The supplement of paper PMC11061612

How the values were obtained:
Assay in all cases: combination Emax (second highest fraction inhibited in the dose matrix, 72 h); higher = more inhibition; extreme values may be limits of the assay
[1] = test system: SNU-423 (Hepatocellular Carcinoma)
Summary of the method: (§1)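 Cell lines in DMEM/F12 or RPMI with 10% FBS were plated in 1536-well plates, held 24 hours at 37°C, 5% CO2, then given two-drug dose matrices for 72 hours (DMSO typically 0.2%). Viability was read by CellTiter-Glo 2.0 luminescence and scaled as inhibition from 0 (vehicle wells) to 1 (blank wells). Combination Emax is the second-highest inhibition in the matrix; Bliss excess is observed combination effect minus expected EA + EB − EA·EB, EA and EB being single-agent effects.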

[2] = test system: BxPC-3 (Pancreatic Carcinoma)
Summary of the method: as §1

NCI-H226 (Mesothelioma) = test system: NCI-H226 (Mesothelioma)
Summary of the method: as §1

[3] = test system: C-33-A (Cervical Carcinoma)
Summary of the method: as §1

[4] = test system: LCLC-103H (Non-Small Cell Lung Carcinoma)
Summary of the method: as §1

GAK (Melanoma) = test system: GAK (Melanoma)
Summary of the method: as §1

[5] = test system: IA-LM (Non-Small Cell Lung Carcinoma)
Summary of the method: as §1

[6] = test system: NCI-H3118 (Head and Neck Carcinoma)
Summary of the method: as §1

[7] = test system: SK-CO-1 (Colorectal Carcinoma)
Summary of the method: as §1

[8] = test system: NAMALWA (Burkitt's Lymphoma)
Summary of the method: as §1

[9] = test system: LS-1034 (Colorectal Carcinoma)
Summary of the method: as §1

[10] = test system: MDA-MB-415 (Breast Carcinoma)
Summary of the method: as §1

KALS-1 (Glioblastoma) = test system: KALS-1 (Glioblastoma)
Summary of the method: as §1

IST-MEL1 (Melanoma) = test system: IST-MEL1 (Melanoma)
Summary of the method: as §1

SK-N-SH (Neuroblastoma) = test system: SK-N-SH (Neuroblastoma)
Summary of the method: as §1

[11] = test system: MS-1 (Small Cell Lung Carcinoma)
Summary of the method: as §1

[12] = test system: MONO-MAC-6 (Acute Myeloid Leukemia)
Summary of the method: as §1

[13] = test system: HPAF-II (Pancreatic Carcinoma)
Summary of the method: as §1

[14] = test system: RCC-JW (Kidney Carcinoma)
Summary of the method: as §1

[15] = test system: ZR-75-30 (Breast Carcinoma)
Summary of the method: as §1

Structure (SMILES) | combination Emax [1] | combination Emax [2] | combination Emax (NCI-H226 (Mesothelioma)) | combination Emax [3] | combination Emax [4] | combination Emax (GAK (Melanoma)) | combination Emax [5] | combination Emax [6] | combination Emax [7] | combination Emax [8] | combination Emax [9] | combination Emax [10] | combination Emax (KALS-1 (Glioblastoma)) | combination Emax (IST-MEL1 (Melanoma)) | combination Emax (SK-N-SH (Neuroblastoma)) | combination Emax [11] | combination Emax [12] | combination Emax [13] | combination Emax [14] | combination Emax [15]
C=CCn1c(=O)c2cnc(Nc3ccc(N4CCN(C)CC4)cc3)nc2n1-c1cccc(C(C)(C)O)n1 [AZD1775] + CCc1c2c(nc3ccc(O)cc13)-c1cc3c(c(=O)n1C2)COC(=O)[C@]3(O)CC [SN-38] (first compound max 1 µM, partner max 0.3 µM) | 0.598 | 0.562 | 0.366 | 0.997 | 0.709 | 0.678 | 0.67 | 0.9 | 0.898 | 1 | 0.894 | 0.469 | 0.965 | 0.825 | 0.957 | 0.86 | 1 | 0.597 | 0.542 | 0.137
C=CCn1c(=O)c2cnc(Nc3ccc(N4CCN(C)CC4)cc3)nc2n1-c1cccc(C(C)(C)O)n1 [AZD1775] + Nc1ccn([C@@H]2O[C@H](CO)[C@@H](O)C2(F)F)c(=O)n1 [Gemcitabine] (first compound max 1 µM, partner max 0.3 µM) | 0.655 | 0.554 | 0.482 | 0.996 | 0.753 | 0.612 | 0.287 | 0.872 | 0.903 | 1 |  | 0.58 | 0.929 | 0.662 | 0.879 | 0.838 | 1 | 0.551 | 0.819 | 0.24
CN(CCO)CC[C@H](CSc1ccccc1)Nc1ccc(S(=O)(=O)NC(=O)c2ccc(N3CCC([C@@H](O)c4ccccc4-c4ccc(Cl)cc4)CC3)cc2)cc1S(=O)(=O)C(F)(F)F [AZD4320] + CC(=O)O[C@H]1C(=O)[C@@]2(C)[C@H]([C@H](OC(=O)c3ccccc3)[C@]3(O)C[C@H](OC(=O)[C@H](O)[C@@H](NC(=O)c4ccccc4)c4ccccc4)C(C)=C1C3(C)C)[C@]1(OC(C)=O)CO[C@@H]1C[C@@H]2O [Paclitaxel] (first compound max 1 µM, 7x7, partner max 3 µM) | 0.959 | 0.928 | 0.917 | 0.989 | 0.985 | 0.709 | 0.833 | 0.978 | 0.972 | 1 | 0.82 | 0.923 | 0.984 | 0.977 | 0.989 | 0.971 | 1 | 0.955 | 0.952 | 0.326
CN(CCO)CC[C@H](CSc1ccccc1)Nc1ccc(S(=O)(=O)NC(=O)c2ccc(N3CCC([C@@H](O)c4ccccc4-c4ccc(Cl)cc4)CC3)cc2)cc1S(=O)(=O)C(F)(F)F [AZD4320] + CS(=O)(=O)CCNCc1ccc(-c2ccc3ncnc(Nc4ccc(OCc5cccc(F)c5)c(Cl)c4)c3c2)o1 [Lapatinib] (first compound max 1 µM, 7x7, partner max 10 µM) | 0.91 | 0.486 | 0.309 | 0.476 | 0.488 | 0.272 | 0.539 | 0.561 | 0.97 | 0.373 | 0.939 | 0.917 | 0.422 | 0.364 | 0.97 | 0.971 | 0.885 | 0.984 | 1 | 0.957
CN(CCO)CC[C@H](CSc1ccccc1)Nc1ccc(S(=O)(=O)NC(=O)c2ccc(N3CCC([C@@H](O)c4ccccc4-c4ccc(Cl)cc4)CC3)cc2)cc1S(=O)(=O)C(F)(F)F [AZD4320] + Nc1ccn([C@@H]2O[C@H](CO)[C@@H](O)C2(F)F)c(=O)n1 [Gemcitabine] (first compound max 1 µM, 7x7, partner max 0.3 µM) | 0.605 | 0.577 | 0.555 | 0.796 | 0.681 | 0.583 | 0.594 | 0.752 | 0.945 | 0.99 | 0.592 | 0.637 | 0.595 |  | 0.968 | 0.78 | 1 | 0.759 | 0.965 | 0.216
Cc1c2c(nn1C)CSCc1cc(n(C)n1)CSc1cc(c3ccccc3c1)OCCCc1c(C(=O)O)n(C)c3c-2c(Cl)ccc13 [AZD5991] + CC(=O)O[C@H]1C(=O)[C@@]2(C)[C@H]([C@H](OC(=O)c3ccccc3)[C@]3(O)C[C@H](OC(=O)[C@H](O)[C@@H](NC(=O)c4ccccc4)c4ccccc4)C(C)=C1C3(C)C)[C@]1(OC(C)=O)CO[C@@H]1C[C@@H]2O [Paclitaxel] (first compound max 1 µM, 7x7, partner max 3 µM) | 0.672 | 0.686 | 0.378 | 0.912 | 0.91 | 0.548 | 0.199 | 0.973 | 0.858 | 1 | 0.587 | 0.838 | 0.951 | 0.587 | 0.926 | 0.867 | 1 | 0.53 | 0.737 | 0.441
